From US9120749B2, “Quinoline derivatives and MELK inhibitors containing the same” (ONCOTHERAPY SCIENCE, INC., priority 2010, dated 2015)
Read-outs that look alike come from different tables or passages of the source.

Assays:
[1] = system: HT-1197 cells; experiment: Cell-based assay: anti-proliferative activity, Cell Counting Kit-8, 72 hours (HT-1197, negative control without MELK expression); settings: Homo sapiens, HT1197, 72 h, HT1197 cells (negative control, no MELK expression), 72 hours
Method: (§1) To evaluate the expression status of MELK in several cell lines, western blot analysis was performed using crude cell lysate collected from those cells. Anti-MELK antibody (clone 31, BD Biosciences) was used to visualize the expression.
(§2) Active candidate inhibitors against MELK were evaluated for their target-specific cytotoxicity using T47D, A549, BT-549, and HT-1197 cells was used for negative control. 100 micro-L of cell suspension was seeded onto 96-well microtiter plate (ViewPlate-96FTC, PerkinElmer). The initial cell concentration of T47D, A549, BT-549, and HT-1197 were 3,000 cells/well, 2,000 cells/well and 2,500 cells/well, respectively. Cellular growth was determined using Cell Counting Kit-8 (DOJINDO) at 72 hours after the exposure of the candidate inhibitors. […] Accurate IC50 values were calculated as described previously.

[2] = system: A549 cells; experiment: Cell-based assay: anti-proliferative activity, Cell Counting Kit-8, 72 hours (A549); settings: Homo sapiens, A549, 72 h, 72 hours
Method: as §2, with “100” for “Active candidate inhibitors against MELK were evaluated for their target-specific cytotoxicity using T47D, A549, BT-549, and HT-1197 cells was used for negative control. 100”

[3] = system: T47D cells; experiment: Cell-based assay: anti-proliferative activity, Cell Counting Kit-8, 72 hours (T47D); settings: Homo sapiens, T47D, 72 h
Method: as §1, §2

[4] = biological target: MELK (Homo sapiens, UniProt Q14680); experiment: Kinase assay: MELK activity, phosphorylation of FITC-labeled histone H3 peptide measured by IMAP fluorescence polarization; format: biochemical
In short: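 Substrate is FITC-labeled histone H3 peptide. Compounds come from a 12.5 mM DMSO stock, diluted so assay DMSO is 1%. The stop step adds threefold-volume progressive binding solution, followed by 0.5 h at room temperature and an FP read.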

[5] = system: DU4475 cells; experiment: Cell-based assay: anti-proliferative activity, Cell Counting Kit-8, 72 hours (DU4475); settings: Homo sapiens, DU-4475, 72 h
[6] = read-out: IC50 (μM) (kinase assay)
[7] = 50 micro-M ATP, FITC-labeled histone H3 peptide substrate, IMAP fluorescence polarization, read-out: IC50 (μM) (kinase assay)

Sequence of MELK (Q14680 whole entry, looked up): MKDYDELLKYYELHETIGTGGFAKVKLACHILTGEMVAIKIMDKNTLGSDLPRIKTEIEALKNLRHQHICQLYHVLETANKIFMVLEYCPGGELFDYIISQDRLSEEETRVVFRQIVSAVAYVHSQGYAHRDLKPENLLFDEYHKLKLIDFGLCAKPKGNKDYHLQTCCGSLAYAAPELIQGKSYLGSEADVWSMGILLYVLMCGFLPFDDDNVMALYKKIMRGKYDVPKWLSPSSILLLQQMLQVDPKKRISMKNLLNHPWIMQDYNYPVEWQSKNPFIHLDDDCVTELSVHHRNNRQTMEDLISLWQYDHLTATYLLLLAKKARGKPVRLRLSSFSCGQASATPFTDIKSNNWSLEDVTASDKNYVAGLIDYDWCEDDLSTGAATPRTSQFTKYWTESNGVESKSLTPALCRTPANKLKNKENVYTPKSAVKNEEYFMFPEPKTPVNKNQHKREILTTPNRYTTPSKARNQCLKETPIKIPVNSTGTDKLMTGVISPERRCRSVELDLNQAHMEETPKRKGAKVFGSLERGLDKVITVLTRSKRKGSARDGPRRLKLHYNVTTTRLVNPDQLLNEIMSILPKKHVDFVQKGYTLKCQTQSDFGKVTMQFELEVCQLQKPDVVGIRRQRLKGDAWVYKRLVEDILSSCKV

Row | Compound | IC50 [1] [µM] | IC50 [2] [µM] | IC50 [3] [µM] | IC50 [4, 6] [µM] | IC50 [5] [µM] | IC50 [4, 7] [µM] | IC50 [4] [µM]
1 | COC1CCN(C2CCC(Nc3c(C(=O)C4CC4)cnc4ccc(-c5cc(F)c(O)c(Cl)c5)cc34)CC2)C1 (centres unmarked) [Example 686, (6-(3-chloro-5-fluoro-4-hydroxyphenyl)-4-(4-(3-methoxypyrrolidin-1-yl)cyclohexylamino)quinolin-3-yl)(cyclopropyl)methanone] | 1.1 | 0.17 | 0.19 | 0.0035 | 0.16 |  | 
2 | COc1cc(-c2ccc3ncc(C(=O)C4CC4)c(N[C@H]4CC[C@H](CN(C)CCO)CC4)c3c2)cc(Cl)c1O [Example 633] | 2.3 | 0.12 | 0.21 | 0.0016 | 0.15 |  | 
3 | CC(=O)c1cnc2ccc(-c3cc(Cl)c(O)c(Cl)c3)cc2c1N[C@@H]1CC[C@@H](CN(C)C)C1 [Example 718, 1-(6-(3,5-dichloro-4-hydroxyphenyl)-4-((1R,3R)-3-((dimethylamino)methyl)cyclopentylamino)quinolin-3-yl)ethanone] | 2 | 0.44 | 0.36 | 0.0055 | 0.19 |  | 
4 | O=C(c1cnc2ccc(-c3cc(F)c(O)c(Cl)c3)cc2c1Nc1ccc(NC2CCNC2)nc1)C1CC1 (centres unmarked) [Example 667, (6-(3-chloro-5-fluoro-4-hydroxyphenyl)-4-(6-(pyrrolidin-3-ylamino)pyridin-3-ylamino)quinolin-3-yl)(cyclopropyl)methanone] | 10 | 7.7 | 0.17 | 0.01 | 0.077 |  | 
5 | COc1cc(-c2ccc3ncc(C(=O)C4CC4)c(Nc4ccc(C(O)CN(C)C)cc4)c3c2)cc(Cl)c1O (centres unmarked) [Example 708, (6-(3-chloro-4-hydroxy-5-methoxyphenyl)-4-(4-(2-(dimethylamino)-1-hydroxyethyl)phenylamino)quinolin-3-yl)(cyclopropyl)methanone] | 4.6 | 0.3 | 0.41 | 0.0065 | 0.25 |  | 
6 | CC(=O)c1cnc2ccc(-c3cc(Cl)c(O)c(Cl)c3)cc2c1N[C@H]1CC[C@H](CCN(C)C)CC1 [Example 739, 1-(6-(3,5-dichloro-4-hydroxyphenyl)-4-((trans-4-(2-(dimethylamino)ethyl)cyclohexyl)amino)quinolin-3-yl)ethanone] | 4 |  | 0.14 |  | 0.099 |  | 
7 | COc1cc(-c2ccc3ncc(C(C)=O)c(Nc4ccc(CN5CCN(C)CC5)cc4)c3c2)cc(Cl)c1O [Example 653, 1-(6-(3-chloro-4-hydroxy-5-methoxyphenyl)-4-(4-((4-methylpiperazin-1-yl)methyl)phenylamino)quinolin-3-yl)ethanone] | 1.9 | 0.5 | 1.3 |  | 0.32 |  | 
8 | CN(C)C1CCN(C[C@H]2CC[C@H](Nc3c(C(=O)C4CC4)cnc4ccc(-c5cc(Cl)c(O)c(Cl)c5)cc34)CC2)C1 (some centres unmarked) [Example 663] | 4.6 | 0.22 | 0.32 |  | 0.17 |  | 
9 | CN1CCN(C[C@H]2CC[C@H](Nc3c(C(=O)C4CC4)cnc4ccc(-c5cc(F)c(O)c(Cl)c5)cc34)CC2)CC1 [Example 636] | 0.94 | 0.2 | 0.16 |  | 0.18 |  | 
10 | CN(C)C1CCN(Cc2ccc(Nc3c(C(=O)C4CC4)cnc4ccc(-c5cc(Cl)c(O)c(Cl)c5)cc34)cc2)C1 (centres unmarked) [Example 694, cyclopropyl(6-(3,5-dichloro-4-hydroxyphenyl)-4-(4-((3-(dimethylamino)pyrrolidin-1-yl)methyl)phenylamino)quinolin-3-yl)methanone] | 7.5 | 0.15 | 0.41 |  | 0.12 |  | 
11 | CN1CCCC1c1ccc(Nc2c(C(=O)C3CC3)cnc3ccc(-c4cc(F)c(O)c(Cl)c4)cc23)nc1 (centres unmarked) [Example 443] | 10 | 6.6 | 7.1 |  |  | 0.043 | 
12 | O=C(c1cnc2ccc(-c3cc(Cl)c(O)c(Cl)c3)cc2c1-c1ccc(NCCN2CCOCC2)nc1)C1CC1 [Example 450] | 12 | 4.6 | 1.8 |  |  | 0.018 | 
13 | O=C(c1cnc2ccc(-c3cc(F)c(O)c(Cl)c3)cc2c1N1CCN(CCN2CCCC2)C(=O)C1)C1CC1 [Example 440, 4-(6-(3-chloro-5-fluoro-4-hydroxyphenyl)-3-(cyclopropanecarbonyl)quinolin-4-yl)-1-(2-(pyrrolidin-1-yl)ethyl)piperazin-2-one] | 10 | 5.1 | 1.1 |  |  | 0.0044 | 
14 | COc1cc(-c2ccc3ncc(S(C)(=O)=O)c(N4CCC(CN5CCCC5)CC4)c3c2)cc(Cl)c1O [Example 412, 2-chloro-6-methoxy-4-(3-(methylsulfonyl)-4-(4-(pyrrolidin-1-ylmethyl)piperidin-1-yl)quinolin-6-yl)phenol] | 2.5 | 0.58 | 1.4 |  |  | 0.002 | 
15 | CN(C)Cc1ccc(Nc2c(C(=O)C3CC3)cnc3ccc(-c4cnc(C#N)nc4)cc23)nc1 [Example 439, 5-(3-(cyclopropanecarbonyl)-4-(5-((dimethylamino)methyl)pyridin-2-ylamino)quinolin-6-yl)pyrimidine-2-carbonitrile] | 3.6 | 4 | 0.61 |  |  | 0.058 | 
16 | CN(C)[C@H]1CC[C@H](Nc2c(C#N)cnc3ccc(-c4cc(F)c(O)c(Cl)c4)cc23)CC1 [Example 446] | 10 | 8.4 | 0.61 |  |  | 0.0027 | 
17 | CN(C)CC1CCN(c2c(C(=O)C3CC3)cnc3ccc(-c4ccc5cc(O)ccc5c4)cc23)CC1 [Example 449] | 3.3 | 0.64 | 1.8 |  |  | 0.014 | 
18 | CN(C)Cc1ccc(Nc2c(C(=O)C3CCCC3)cnc3ccc(-c4ccc(O)c(Cl)c4)cc23)cc1 [Example 387, (6-(3-chloro-4-hydroxyphenyl)-4-(4-((dimethylamino)methyl)phenylamino)quinolin-3-yl)(cyclopentyl)methanone] | 1.9 | 1 | 1.6 |  |  | 0.089 | 
19 | COc1cc(-c2ccc3ncc(C(=O)C4CC4)c(N4C[C@@H]5C[C@H]4CN5C(=O)CN(C)C)c3c2)cc(Cl)c1O [Example 456] | 29 | 4.2 | 3.8 |  |  |  | 0.0078
20 | COc1cc(-c2ccc3ncc(C#N)c(N4CCC(CN5CCCC5)CC4)c3c2)cc(Cl)c1O [Example 428, 6-(3-chloro-4-hydroxy-5-methoxyphenyl)-4-(4-(pyrrolidin-1-ylmethyl)piperidin-1-yl)quinoline-3-carbonitrile] | 13 | 2.6 | 7.6 |  |  | 0.0037 | 
21 | CN1CCN(Cc2ccc(Nc3c(C(=O)C4CC4)cnc4ccc(-c5ccc(O)c(Cl)c5)cc34)cc2)CC1 [Example 406, (6-(3-chloro-4-hydroxyphenyl)-4-(4-((4-methylpiperazin-1-yl)methyl)phenylamino)quinolin-3-yl)(cyclopropyl)methanone] | 3.4 | 0.49 | 1.3 |  |  | 0.019 | 
22 | N#Cc1cnc2ccc(-c3ccc(O)c(Cl)c3)cc2c1N1CCC(CN2CCCC2)CC1 [Example 433, 6-(3-chloro-4-hydroxyphenyl)-4-(4-(pyrrolidin-1-ylmethyl)piperidin-1-yl)quinoline-3-carbonitrile] | 3.7 | 0.7 | 0.54 |  |  | 0.043 | 
23 | N#Cc1cnc2ccc(-c3cc(F)c(O)c(Cl)c3)cc2c1N1CCC(CN2CCCC2)CC1 [Example 434, 6-(3-chloro-5-fluoro-4-hydroxyphenyl)-4-(4-(pyrrolidin-1-ylmethyl)piperidin-1-yl)quinoline-3-carbonitrile] | 10 | 1.1 | 0.45 |  |  | 0.035 | 
24 | CN(C)Cc1ccc(Nc2c(C(=O)C3CC3)cnc3ccc(-c4cc(Cl)c(O)c(Cl)c4)cc23)nc1 [Example 417, cyclopropyl(6-(3,5-dichloro-4-hydroxyphenyl)-4-(5-((dimethylamino)methyl)pyridin-2-ylamino)quinolin-3-yl)methanone] | 22 | 1.8 | 1.7 |  |  | 0.0099 | 
25 | CN(C)Cc1ccc(Nc2c(S(C)(=O)=O)cnc3ccc(-c4ccc(O)c(Cl)c4)cc23)cc1 [Example 411, 2-chloro-4-(4-(4-((dimethylamino)methyl)phenylamino)-3-(methylsulfonyl)quinolin-6-yl)phenol] | 0.63 | 0.37 | 0.29 |  |  | 0.0091 | 
